Reference: patent US20130287890A1, “INHIBITOR OF THE PRODUCTION OF ADVANCED GLYCATION END PRODUCTS” (UENO FINE CHEMICALS INDUSTRY, LTD., priority 2012, published 2013)

How the values were obtained:
3-DG = test: Quantitative determination of 3-DG (HPLC) after reaction of amino acids or food-derived proteins with carbohydrates at 120° C. for 60 minutes; format: biochemical; settings: for 3-DG: 120° C., 60 minutes
Procedure: Amino acids, carbohydrates and a phosphate buffer solution were charged in a 30 mL glass test tube in each amount shown in Table 1, followed by sealing and stirring. After reacting in an autoclave at 120° C. for 60 minutes, the reaction solution was cooled and then filtered through a 0.2 μm filter. The filtrate thus obtained was used as a sample. The amino acids and carbohydrates used are as follows.
To 2 mL of a sample, the same amount of a 60% perchloric acid solution was added to deproteinize the sample. The sample was neutralized with 4 mL of an aqueous saturated sodium hydrogen carbonate solution and 0.8 mL of a 0.1% methanol solution of 2,3-diaminonaphthalene was added, and then the mixture was reacted at 4° C. for 16 hours. Next, the reactant was extracted with 4.4 mL of ethyl acetate, concentrated to dryness using an evaporator, dissolved in 5 mL of methanol, and then filtered through a 0.45 μm filter. The filtrate was subjected to high-performance liquid chromatography and 3-DG was quantitatively determined under the following measurement conditions.
Injection amount: 20 μL Column: TSK-GEL, ODS-80Ts (4.6×150 mm, manufactured by TOSOH CORPORATION) Column temperature: 30° C. Mobile phase: 50 mM phosphoric acid:methanol:acetonitrile=7:1.5:1.5 Flow rate: 1 mL/min.
Food-derived proteins, carbohydrates and a phosphate buffer solution were charged in a 30 mL glass test tube in each amount shown in Table 6, followed by sealing and stirring, and then the mixture was reacted in an autoclave at 120° C. for 60 minutes. Next, the reactant was fractionated by centrifugation at 3,000 rpm for 3 hours using an ultrafiltration unit (VIVA SPIN 20, manufactured by Sartorius Corporation). The obtained low molecular weight fraction was used as a sample for determination of 3-DG, while the obtained high molecular weight fraction was used as a sample for the determination of fluorescent AGEs, RAGE agonist activity and RAGE antagonist activity. Food-derived proteins and carbohydrates used are as follows: […]

human RAGE [1] = target: T1, human RAGE (Homo sapiens, UniProt Q15109); test: RAGE agonist activity of reaction samples (120° C., 60 minutes), NF-κB luciferase assay in C6 glioma cells; format: cell-based, rat; settings: Test Example 2
T1 construct: human RAGE plasmid (including full-length human RAGE cDNA); expressed in transfected cells; host or cells: C6 glioma cells carrying pNF-κB-Luc plasmid and human RAGE plasmid
T1 sequence (Q15109 23-404): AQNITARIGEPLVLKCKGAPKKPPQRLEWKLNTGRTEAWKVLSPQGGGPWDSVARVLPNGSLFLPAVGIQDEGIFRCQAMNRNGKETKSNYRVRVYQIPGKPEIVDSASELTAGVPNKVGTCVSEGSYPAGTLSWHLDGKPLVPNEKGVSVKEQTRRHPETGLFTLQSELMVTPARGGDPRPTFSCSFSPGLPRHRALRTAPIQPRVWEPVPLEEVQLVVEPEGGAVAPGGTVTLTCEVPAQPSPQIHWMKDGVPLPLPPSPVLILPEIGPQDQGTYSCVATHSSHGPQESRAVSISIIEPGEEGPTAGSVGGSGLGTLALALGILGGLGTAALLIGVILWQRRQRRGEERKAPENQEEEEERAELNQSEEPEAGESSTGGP
Procedure: (§1) Food-derived proteins, carbohydrates and a phosphate buffer solution were charged in a 30 mL glass test tube in each amount shown in Table 6, followed by sealing and stirring, and then the mixture was reacted in an autoclave at 120° C. for 60 minutes. Next, the reactant was fractionated by centrifugation at 3,000 rpm for 3 hours using an ultrafiltration unit (VIVA SPIN 20, manufactured by Sartorius Corporation). The obtained low molecular weight fraction was used as a sample for determination of 3-DG, while the obtained high molecular weight fraction was used as a sample for the determination of fluorescent AGEs, RAGE agonist activity and RAGE antagonist activity. Food-derived proteins and carbohydrates used are as follows:
Using Luciferase Assay System (manufactured by Promega Corporation), evaluation of RAGE agonist activity was performed. (Day 1) According to the methods disclosed in Diabetes, 2006, vol. 55, pp. 2510-2522, C6 glioma cells into which pNF-κB-Luc plasmid (manufactured by Stratagene Corporation) and human RAGE plasmid (including full-length human RAGE cDNA) have been introduced were seeded at 100 μL/well into a 96-well plate and cultured in a CO2 incubator until the cells were confluent. For the culture, 10% FBS/DMEM medium was used. (Day 2) The medium was removed, and after wells were washed with 300 μL of serum-free DMEM medium, 100 μL of 0.1% FBS/DMEM medium was slowly added. Then, the medium was incubated overnight in a CO2 incubator. (Day 3) The sample was diluted using the medium, and 50 μL of the diluted sample was added to each well. AGE-BSA in which AGE was formed with glyceraldehydes (50 μg/mL) was added to a control well. After incubation in a CO2 incubator for 4 hours, the medium was removed and wells were washed 2 times with 300 μL of PBS (−). Then, 25 μL of 1× lysis buffer was added on ice. After the plate was shaken for 15 seconds, 20 μL of lysate was charged in a new white plate. Further 100 μL of a luciferase assay reagent was added, and a […] was measured by a luminometer. Using 5 μL of lysate, quantitative determination of protein was also performed.

human RAGE [2] = target: T1, human RAGE; test: RAGE antagonist activity of reaction samples (120° C., 60 minutes) mixed with AGE-BSA, NF-κB luciferase assay in C6 glioma cells; format: cell-based, rat; settings: Test Example 2
Procedure: as §1
Using Luciferase Assay System (manufactured by Promega Corporation), evaluation of RAGE antagonist activity was performed. (Day 1) According to the methods disclosed in Diabetes, 2006, vol. 55, pp. 2510-2522, C6 glioma cells into which pNF-κB-Luc plasmid (manufactured by Stratagene Corporation) and human RAGE plasmid (including full-length human RAGE cDNA) have been introduced were seeded at 100 μL/well into a 96-well plate and cultured in a CO2 incubator until the cells were confluent. For the culture, 10% FBS/DMEM medium was used. (Day 2) The medium was removed, and after wells were washed with 300 μL of serum-free DMEM medium, 100 μL of 0.1% FBS/DMEM medium was slowly added. Then, the medium was incubated overnight in a CO2 incubator. (Day 3) The sample was diluted using the medium, and 50 μL of the diluted sample, AGE-BSA in which AGE was formed with glyceraldehydes (50 μg/mL) as a control, and the mixture of diluted sample and AGE-BSA were added to wells. After incubation in a CO2 incubator for 4 hours, the medium was removed and wells were washed 2 times with 300 μL of PBS(−). Then, 25 μL of 1× lysis buffer was added on ice. After the plate was shaken for 15 seconds, 20 μl of lysate was charged in a new white plate. Further 100 μL of a luciferase assay reagent was added, and a fluorescence intensity was measured by a luminometer. Using 5 μl of lysate, quantitative determination of protein was also performed.

[3] = Test Example 1, lysine + arginine 0.2 g each, carbohydrate 3.40 g each, 20 mL phosphate buffer
[4] = Test Example 2, gliadin 0.1 g + carbohydrate 3.4 g
[5] = Test Example 2, lactalbumin 0.05 g + carbohydrate 3.4 g
[6] = Test Example 2, lactic casein 0.01 g + carbohydrate 3.4 g
[7] = Test Example 2, ovalbumin 0.05 g + carbohydrate 3.4 g
[8] = Test Example 2, soybean casein 0.01 g + carbohydrate 3.4 g
[9] = gliadin + carbohydrate, protein 0.1 μg/mL, relative to control (AGE-BSA) = 1
[10] = lactalbumin + carbohydrate, protein 10 μg/mL, relative to control (AGE-BSA) = 1
[11] = lactic casein + carbohydrate, protein 1 μg/mL, relative to control (AGE-BSA) = 1
[12] = ovalbumin + carbohydrate, protein 10 μg/mL, relative to control (AGE-BSA) = 1
[13] = soybean casein + carbohydrate, protein 0.1 μg/mL, relative to control (AGE-BSA) = 1
[14] = gliadin + carbohydrate, mixture of sample and AGE-BSA, protein 0.1 μg/mL, relative to control (AGE-BSA) = 1
[15] = lactalbumin + carbohydrate, mixture of sample and AGE-BSA, protein 10 μg/mL, relative to control (AGE-BSA) = 1
[16] = lactic casein + carbohydrate, mixture of sample and AGE-BSA, protein 1 μg/mL, relative to control (AGE-BSA) = 1
[17] = ovalbumin + carbohydrate, mixture of sample and AGE-BSA, protein 10 μg/mL, relative to control (AGE-BSA) = 1
[18] = soybean casein + carbohydrate, mixture of sample and AGE-BSA, protein 0.1 μg/mL, relative to control (AGE-BSA) = 1

RAGE agonist activity (human RAGE [1]; [9])	RAGE agonist activity (human RAGE [1]; [10])	RAGE agonist activity (human RAGE [1]; [11])	RAGE agonist activity (human RAGE [1]; [12])	RAGE agonist activity (human RAGE [1]; [13])	RAGE agonist activity (human RAGE [1]; test sections 2, 5 and 11 (ovalbumin, lactalbumin, lactic casein) compared with sections 1, 4 and 10 containing sucrose)	RAGE antagonist activity (human RAGE [2]; [14])	RAGE antagonist activity (human RAGE [2]; [15])	RAGE antagonist activity (human RAGE [2]; [16])	RAGE antagonist activity (human RAGE [2]; [17])	RAGE antagonist activity (human RAGE [2]; [18])	RAGE antagonist activity (human RAGE [2]; test sections 2 and 5 (ovalbumin, lactalbumin) compared with sections 1 and 4 containing sucrose)	SMILES	production of 3-DG (3-DG; Test Example 1, amino acids, compared with the test section 1 containing only sucrose)	3-DG (3-DG; [3])	3-DG (3-DG; [4])	3-DG (3-DG; [5])	3-DG (3-DG; [6])	3-DG (3-DG; [7])	production of 3-DG (3-DG; Test Example 2, ovalbumin, lactalbumin, gliadin, lactic casein and soybean casein, compared with sections containing sucrose)	3-DG (3-DG; [8])
0.51	0.79	0.51	1.42	0.24	decreased	0.90	0.54	1.42	1.74	0.99	decreased	OC[C@@H](O)[C@@H](O[C@H]1O[C@H](CO)[C@@H](O)[C@H](O)[C@H]1O)[C@H](O)[C@@H](O)CO [Maltitol]	significantly decreased	36 nmol/1 g of amino acid	240 nmol/1 g of protein	656 nmol/1 g of protein	2,734 nmol/1 g of protein	523 nmol/1 g of protein	significantly decreased	1,446 nmol/1 g of protein
0.53	0.81	0.53	1.66	0.34		1.00	0.58	1.50	1.80	1.01		OC[C@H]1O[C@@](CO)(O[C@H]2O[C@H](CO)[C@@H](O)[C@H](O)[C@H]2O)[C@@H](O)[C@@H]1O [Sucrose, reference compound]		151 nmol/1 g of amino acid	2,645 nmol/1 g of protein	4,758 nmol/1 g of protein	22,464 nmol/1 g of protein	4,532 nmol/1 g of protein		24,285 nmol/1 g of protein
